From patent publication US20090170812A1, “Transcription factor modulating compounds and methods of use thereof” (priority 2006, published 2009)

Tests used:
ExsA = target: T1, ExsA (Pseudomonas aeruginosa, UniProt P26993); test: In vitro activity of Mar inhibitors against ExsA: cell-free DNA binding assay; conditions: purified ExsA from P. aeruginosa, inhibition of DNA binding in vitro
T1 construct: made in house
T1 sequence (P26993 1-278): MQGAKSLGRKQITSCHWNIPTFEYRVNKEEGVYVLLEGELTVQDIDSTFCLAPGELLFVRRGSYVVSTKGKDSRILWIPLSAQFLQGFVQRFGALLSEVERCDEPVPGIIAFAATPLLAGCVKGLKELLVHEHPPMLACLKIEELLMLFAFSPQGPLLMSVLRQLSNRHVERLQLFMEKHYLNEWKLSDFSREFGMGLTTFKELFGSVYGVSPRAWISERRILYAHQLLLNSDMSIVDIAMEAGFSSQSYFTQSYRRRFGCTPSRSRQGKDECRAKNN

[1] = test system: Yersinia pseudotuberculosis
LcrF (VirF) = LcrF (VirF) (Yersinia pestis, UniProt P28808); test: biochemical; type: binding, Y. pseudotuberculosis
P. aeruginosa = test: Whole cell assay: cytotoxicity of P. aeruginosa toward J774 cells (CytoTox 96, LDH release); conditions: percent cytotoxicity of treated P. aeruginosa toward J774 cells

LcrF (VirF), sequence (P28808 whole entry, looked up): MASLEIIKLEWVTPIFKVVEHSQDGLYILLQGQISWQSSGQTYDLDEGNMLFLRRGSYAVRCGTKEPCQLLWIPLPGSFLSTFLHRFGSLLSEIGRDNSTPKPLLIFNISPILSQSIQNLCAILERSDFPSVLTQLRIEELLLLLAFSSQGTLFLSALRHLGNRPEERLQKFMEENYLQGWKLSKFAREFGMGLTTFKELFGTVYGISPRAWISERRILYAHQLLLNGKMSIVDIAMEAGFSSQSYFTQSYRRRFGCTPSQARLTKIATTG

COc1cc(C(=O)Nc2ccc(-c3nc4ccc([N+](=O)[O-])cc4n3O)cc2)ccc1F [AB]
EC50 (ExsA): 10.1 to 25 µM
Cytotoxicity at 50 μg/mL Yersinia [1]: * (key: *: percent cytotoxicity above 75% at 50 μg/mL; **: cytotoxicities below 75% at 50 μg/mL)
EC50 (LcrF (VirF)): 10.1 to 25 µM
Cytotoxicity at 50 μg/mL Pseudomonas (P. aeruginosa): * (percent cytotoxicities above 75% at 50 mg/mL)

O=C(Nc1ccc(-c2nc3ccc([N+](=O)[O-])cc3n2O)cc1)c1ccccc1O [AC]
EC50 (ExsA): 10.1 to 25 µM
Cytotoxicity at 50 μg/mL Yersinia [1]: * (key: *: percent cytotoxicity above 75% at 50 μg/mL; **: cytotoxicities below 75% at 50 μg/mL)
EC50 (LcrF (VirF)): 10.1 to 25 µM
Cytotoxicity at 50 μg/mL Pseudomonas (P. aeruginosa): * (percent cytotoxicities above 75% at 50 mg/mL)

CCc1cc(-c2nc3ccc([N+](=O)[O-])cc3n2O)ccc1NC(=O)/C=C/c1ccc(C)cc1 [AE]
EC50 (ExsA): < 10 µM
Cytotoxicity at 50 μg/mL Yersinia [1]: * (key: *: percent cytotoxicity above 75% at 50 μg/mL; **: cytotoxicities below 75% at 50 μg/mL)
EC50 (LcrF (VirF)): < 10 µM
Cytotoxicity at 50 μg/mL Pseudomonas (P. aeruginosa): * (percent cytotoxicities above 75% at 50 mg/mL)

CC(=O)c1ccc(C(=O)Nc2ccc(-c3nc4ccc([N+](=O)[O-])cc4n3O)nc2)cc1 [AG]
EC50 (ExsA): 10.1 to 25 µM
Cytotoxicity at 50 μg/mL Yersinia [1]: * (key: *: percent cytotoxicity above 75% at 50 μg/mL; **: cytotoxicities below 75% at 50 μg/mL)
EC50 (LcrF (VirF)): > 25.1 µM
Cytotoxicity at 50 μg/mL Pseudomonas (P. aeruginosa): * (percent cytotoxicities above 75% at 50 mg/mL)

O=C(Nc1ccc(-c2nc3ccc([N+](=O)[O-])cc3n2O)c(F)c1)c1ccc(F)cc1 [AH]
EC50 (ExsA): 10.1 to 25 µM
Cytotoxicity at 50 μg/mL Yersinia [1]: * (key: *: percent cytotoxicity above 75% at 50 μg/mL; **: cytotoxicities below 75% at 50 μg/mL)
EC50 (LcrF (VirF)): 10.1 to 25 µM
Cytotoxicity at 50 μg/mL Pseudomonas (P. aeruginosa): * (percent cytotoxicities above 75% at 50 mg/mL)

COc1cc(NC(=O)c2ccc(F)cc2)ccc1-c1nc2ccc([N+](=O)[O-])cc2n1O [AI]
EC50 (ExsA): 10.1 to 25 µM
Cytotoxicity at 50 μg/mL Yersinia [1]: * (key: *: percent cytotoxicity above 75% at 50 μg/mL; **: cytotoxicities below 75% at 50 μg/mL)
EC50 (LcrF (VirF)): > 25.1 µM
Cytotoxicity at 50 μg/mL Pseudomonas (P. aeruginosa): * (percent cytotoxicities above 75% at 50 mg/mL)

O=C(Nc1ccc(-c2nc3ccc([N+](=O)[O-])cc3n2O)cn1)c1ccc(F)cc1 [AJ]
EC50 (ExsA): 10.1 to 25 µM
Cytotoxicity at 50 μg/mL Yersinia [1]: * (key: *: percent cytotoxicity above 75% at 50 μg/mL; **: cytotoxicities below 75% at 50 μg/mL)
EC50 (LcrF (VirF)): 10.1 to 25 µM
Cytotoxicity at 50 μg/mL Pseudomonas (P. aeruginosa): * (percent cytotoxicities above 75% at 50 mg/mL)

O=C(/C=C/c1ccc(F)c(CP(=O)(O)O)c1)Nc1ccc(-c2nc3ccc([N+](=O)[O-])cc3n2O)cc1 [AM]
EC50 (ExsA): 10.1 to 25 µM
Cytotoxicity at 50 μg/mL Yersinia [1]: * (key: *: percent cytotoxicity above 75% at 50 μg/mL; **: cytotoxicities below 75% at 50 μg/mL)
EC50 (LcrF (VirF)): 10.1 to 25 µM
Cytotoxicity at 50 μg/mL Pseudomonas (P. aeruginosa): * (percent cytotoxicities above 75% at 50 mg/mL)

O=C(/C=C/c1ccc(F)cc1)Nc1ccc(-c2nc3ccc([N+](=O)[O-])cc3n2O)cn1 [AN]
EC50 (ExsA): < 10 µM
Cytotoxicity at 50 μg/mL Yersinia [1]: * (key: *: percent cytotoxicity above 75% at 50 μg/mL; **: cytotoxicities below 75% at 50 μg/mL)
EC50 (LcrF (VirF)): < 10 µM
Cytotoxicity at 50 μg/mL Pseudomonas (P. aeruginosa): * (percent cytotoxicities above 75% at 50 mg/mL)

O=C(/C=C/c1ccc(F)cc1)Nc1ccc(-c2nc3ccc([N+](=O)[O-])cc3n2O)nc1 [AO]
EC50 (ExsA): < 10 µM
Cytotoxicity at 50 μg/mL Yersinia [1]: * (key: *: percent cytotoxicity above 75% at 50 μg/mL; **: cytotoxicities below 75% at 50 μg/mL)
EC50 (LcrF (VirF)): 10.1 to 25 µM
Cytotoxicity at 50 μg/mL Pseudomonas (P. aeruginosa): * (percent cytotoxicities above 75% at 50 mg/mL)

O=C(/C=C/c1ccc(F)cc1F)Nc1ccc(-c2nc3ccc([N+](=O)[O-])cc3n2O)nc1 [AP]
EC50 (ExsA): < 10 µM
Cytotoxicity at 50 μg/mL Yersinia [1]: * (key: *: percent cytotoxicity above 75% at 50 μg/mL; **: cytotoxicities below 75% at 50 μg/mL)
EC50 (LcrF (VirF)): < 10 µM
Cytotoxicity at 50 μg/mL Pseudomonas (P. aeruginosa): * (percent cytotoxicities above 75% at 50 mg/mL)

O=C(/C=C/c1ccc(F)cc1F)Nc1ccc(-c2nc3ccc([N+](=O)[O-])cc3n2O)cn1 [AQ]
EC50 (ExsA): < 10 µM
Cytotoxicity at 50 μg/mL Yersinia [1]: * (key: *: percent cytotoxicity above 75% at 50 μg/mL; **: cytotoxicities below 75% at 50 μg/mL)
EC50 (LcrF (VirF)): < 10 µM
Cytotoxicity at 50 μg/mL Pseudomonas (P. aeruginosa): * (percent cytotoxicities above 75% at 50 mg/mL)
